The values below come from patent US11452728B2, “7-aminocephalosporanic acid derivative as inhibitor of IL15 and IL-2 activity” (Warszawski Uniwersytet Medyczny, priority 2013, dated 2022).

Data set [1] concerns IL-15-induced IL-17 synthesis in PBMC. Put plainly: IL-15-induced IL-17 synthesis in PBMC (ELISA). Type of data set: cell-based, human. The protocol: (§1) All experiments were carried out on peripheral blood mononuclear cells (PBMC) from healthy donors. The cells were isolated under the standard protocol regarding density gradient centrifugation. According to the general protocol, 6 ml of blood was layered on 3 ml of Lymphoprep (Axis-shield, Norway), then centrifuged at 800×g for 15 min. The layer of PBMC was collected, the cells were washed twice with phosphate buffered saline (PBS) (BIOMED-LUBLIN, Poland) and suspended in medium RPMI1640 (Gibco, Great Britain), containing 10 mM HEPES (Sigma, USA), 10% fetal calf serum (BIOMED-LUBLIN, Poland) and antibiotic (streptomycin sulfate, penicillin G sodium; amphotericin B, PAA, Austria).
(§2) In all the in vitro experiments non-stimulated PBMC were used as the control. The inhibition efficacy was assessed in relation to the cells stimulated with IL-15 or IL-2. […]
(§3) PBMC were seeded in a 24-well plate (2×10^6 cells in 1 ml of the culture medium/well), treated with the inhibitor, after 30 min. stimulated with IL-15 (5 ng/ml) or IL-2 (5 ng/ml). After 48 hr incubation, the culture medium was collected from each well to determine the IL-17 concentration, cells were harvested and lysed, and the concentration of total protein was measured in cell lysates. The obtained values of IL-17 concentration were calculated for 1 mg of protein. […]
On the technique in general: An ELISA detects its analyte on a solid surface through an enzyme-linked reagent.

The next data set concerns Gram-positive bacteria. Conditions: cited from earlier work.
Data set [2] concerns IL-2-induced IL-17 synthesis in PBMC. Put plainly: IL-2-induced IL-17 synthesis in PBMC (ELISA). Type of data set: cell-based, human. The note with it: IL-2 5 ng/ml; 48 h; Cefazolin 300 μM. As for the experimental part:
as §1, §2, §3

Another data set deals with IL-2-stimulated PBMC. Put plainly: IL-2-induced PBMC proliferation (BrdU Cell Proliferation Assay). The class given is cell-based, human. Conditions: IL-2 5 ng/ml; Cefazolin 20, 100, 300 μM; 4 days; repeated three times, different donors.
The conditions of data set [3]: cited from earlier work.
The next data set deals with IL-15-stimulated PBMC. Put plainly: IL-15-induced PBMC proliferation (BrdU Cell Proliferation Assay). Type of data set: cell-based, human. The note with it: IL-15 5 ng/ml; Cefazolin 20, 100, 300 μM; 4 days; repeated three times, different donors.
In data set [4] the test system is IL-2-induced TNF-α synthesis in PBMC. Put plainly: IL-2-induced TNF-α synthesis in PBMC (ELISA). Type of data set: cell-based, human. Conditions: IL-2 5 ng/ml; 48 h; Cefazolin 300 μM; vs IL-2 stimulated control cells. As for the experimental part: as §1, §2
(§4) The PBMC were seeded in a 24-well plate (2×10^6 cells in 1 ml of the culture medium/well), treated with the tested compound and after 30 min stimulated with IL-15 (5 ng/ml) or IL-2 (5 ng/ml). After 48 h incubation, the culture medium was collected from each well to determine the TNF-α concentration, cells were harvested and lysed, and the concentration of total protein was measured in cell lysates. The obtained values of TNF-α concentration were calculated for 1 mg of protein. […]

The subject of data set [5] is IL-15-induced TNF-α synthesis in PBMC. The data set is described as follows: IL-15-induced TNF-α synthesis in PBMC (ELISA). Type of data set: cell-based, human. The note with it: IL-15 5 ng/ml; 48 h; Cefazolin 20-1000 μM; vs IL-15 stimulated control cells. As for the experimental part:
as §1, §2, §4

Method for IL-15-stimulated PBMC: (§5) All experiments were carried out on peripheral blood mononuclear cells (PBMC) from healthy donors. The cells were isolated under the standard protocol regarding density gradient centrifugation. According to the general protocol, 6 ml of blood was layered on 3 ml of Lymphoprep (Axis-shield, Norway), then centrifuged at 800×g for 15 min. The layer of PBMC was collected, the cells were washed twice with phosphate buffered saline (PBS) (BIOMED-LUBLIN, Poland) and suspended in medium RPMI1640 (Gibco, Great Britain), containing 10 mM HEPES (Sigma, USA), 10% fetal calf serum (BIOMED-LUBLIN, Poland) and antibiotic (streptomycin sulfate, penicillin G sodium; amphotericin B, PAA, Austria). In all the in vitro experiments non-stimulated PBMC were used as the control. The inhibition efficacy was assessed in relation to the cells stimulated with IL-15 or IL-2. PBMC proliferation was evaluated using commercially available BrdU Cell Proliferation Assay (Calbiochem, Merck, Germany). PBMC were seeded in a 96-well plate (25×10^3 cells in 200 μL of the culture medium/well). The next day the cells were treated with the tested compound at final concentrations: 20 μM, 100 μM and 300 μM. […] The results are expressed as the percentage change of proliferating cells with regard to the control cells stimulated with IL-15 or IL-2. […]
Method for IL-2-stimulated PBMC: as §5

In the case of `Cc1nnc(SCC2=C(C(=O)O)N3C(=O)[C@@H](NC(=O)Cn4cnnn4)[C@H]3SC2)s1` [Cefazolin], the “cytotoxic or apoptotic activity on PBMC” value in the data set with PBMC was “does not trigger the apoptotic pathway”. Further, the “effect on IL-15-induced IL-17 synthesis in PBMC” value in data set [1] (IL-15 5 ng/ml, 48 h, Cefazolin 20-1000 μM, vs IL-15 stimulated control cells) is “significantly reduces”. Further, in [1] (increase of concentration from 200 μM to 1000 μM), the “effect of increasing Cefazolin concentration on IL-15-induced IL-17 synthesis” value is listed as “does not affect IL-17 synthesis to any great extent”. Besides, the “bactericidal activity against Gram-positive bacteria” value with Gram-positive bacteria is “Potent bactericidal activity”. Also, the “effect on IL-2-induced IL-17 synthesis in PBMC” value in data set [2] is “Strong inhibitory effect”. In the data set with IL-2-stimulated PBMC, the “effect on IL-2-induced PBMC proliferation” value was “inhibits”. Further, the “crossing of the blood brain barrier” value in data set [3] (in vivo) is recorded as “does not cross the blood brain barrier”. The “excreted in urine of unchanged structure, share of the excreted amount” value in [3] (urine, glomerular filtration) is reported as 90%. Moreover, in the data set on IL-15-stimulated PBMC, the “effect on IL-15-induced PBMC proliferation” value is on record as “inhibits”. The “effect on IL-2-induced TNF-α synthesis in PBMC” value in [4] is given as “significantly reduces”. In data set [5], the “effect on IL-15-induced TNF-α synthesis in PBMC” value is “significantly reduces”.
